The values below come from patent publication US9994644B2, “mAB 2 anti-Met antibody” (Agency for Science, Technology and Research, priority 2013, dated 2018).

In one test the test system is mAb 2. The test can be described thus: Alanine scan ELISA and mAb 2 titration against peptides. The note with it: for mAb 2 binding to alanine-substituted peptide: 0.05 μg/mL mAb 2, 1 mM DTT; for Increase mAb 2 binding in ascending order: titration of purified mAb 2 against peptides, 1 = least binding. The class given is binding, murine. The procedure:
Variations of peptides O28 and O29, where each amino acid residue was sequentially substituted for an alanine residue, were synthesised. Streptavidin-coated plates (Pierce/Thermo Scientific, #15520) were blocked with 3% BSA/PBS at room temperature. The peptides were dissolved in DMSO and stored according to manufacturer's recommendation. Streptavidin-coated plates were coated with each peptide (5 μg/mL) overnight at room temperature. Wells were washed before hybridoma supernatant or purified monoclonal antibody was added to the each well. HRP-conjugated anti-mouse antibody was added to detect bound monoclonal antibodies. ELISA substrate (Bio-Rad #172-1067) solution was prepared freshly according to the manufacturer's instructions and added to the wells. Colour change was monitored by eye and the reaction was stopped by adding 100 mM sulphuric acid. Absorbance was read at 450 nm in a microplate reader (SPECTRAmax PLUS^384, Molecular Device, U.S.A.). The crystal structure of c-Met extracellular domain, accession number 1 SHY, was obtained from Protein Data Base (PDB). Computer imaging of the epitopes were analysed by PyMol (DeLano Scientific LLC, U.S.A.) software.
To identify residues within peptides O28 and O29 that are crucial for mAb 2-Met interaction, an alanine scan was performed. Variations of peptide O28 and O29, where each amino acid residue was sequentially substituted for an alanine residue, were synthesised (Table 3). Peptides P1 to P16 (with the SEQ II) NO: […]) and P17 to P31. (with the SEQ ID NO: 40 to 56) were derived from the original peptide O28 and O29 respectively. Using the same ELISA-based assay described above, synthesised peptides were added to streptavidin-coated wells and purified mAb 2 was added to each peptide containing well. mAb 2 binding was determined by absorbance reading at […]. […] Peptide O27, peptide O1 and no peptide were used as negative controls.
The substituted amino acid residues in these peptides are thus involved in mAb 2 epitope. […] This is supported by the loss of mAb 2 binding due to the substitution of proline by alanine in peptides P14, P25 and P10. To determine which residues play a more crucial role in mAb 2 binding, mAb 2 was titrated against the peptides (FIG. 12B). […] These residues are not consecutive residues.
(An ELISA detects its analyte on a solid surface through an enzyme-linked reagent.)

The target of test [1] is c-Met (Homo sapiens, UniProt P08581). The note with it: background statement; cited from earlier work.
Chain of c-Met (Homo sapiens, UniProt P08581) (P08581 25-307): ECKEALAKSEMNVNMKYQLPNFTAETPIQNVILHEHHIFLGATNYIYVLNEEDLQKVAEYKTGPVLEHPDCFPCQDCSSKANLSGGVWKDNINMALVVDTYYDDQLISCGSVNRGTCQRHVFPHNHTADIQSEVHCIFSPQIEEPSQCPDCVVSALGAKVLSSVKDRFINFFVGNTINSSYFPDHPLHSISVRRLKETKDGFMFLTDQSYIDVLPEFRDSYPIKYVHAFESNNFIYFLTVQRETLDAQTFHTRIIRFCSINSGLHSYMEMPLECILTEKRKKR
Chain of c-Met (Homo sapiens, UniProt P08581) (P08581 308-1390): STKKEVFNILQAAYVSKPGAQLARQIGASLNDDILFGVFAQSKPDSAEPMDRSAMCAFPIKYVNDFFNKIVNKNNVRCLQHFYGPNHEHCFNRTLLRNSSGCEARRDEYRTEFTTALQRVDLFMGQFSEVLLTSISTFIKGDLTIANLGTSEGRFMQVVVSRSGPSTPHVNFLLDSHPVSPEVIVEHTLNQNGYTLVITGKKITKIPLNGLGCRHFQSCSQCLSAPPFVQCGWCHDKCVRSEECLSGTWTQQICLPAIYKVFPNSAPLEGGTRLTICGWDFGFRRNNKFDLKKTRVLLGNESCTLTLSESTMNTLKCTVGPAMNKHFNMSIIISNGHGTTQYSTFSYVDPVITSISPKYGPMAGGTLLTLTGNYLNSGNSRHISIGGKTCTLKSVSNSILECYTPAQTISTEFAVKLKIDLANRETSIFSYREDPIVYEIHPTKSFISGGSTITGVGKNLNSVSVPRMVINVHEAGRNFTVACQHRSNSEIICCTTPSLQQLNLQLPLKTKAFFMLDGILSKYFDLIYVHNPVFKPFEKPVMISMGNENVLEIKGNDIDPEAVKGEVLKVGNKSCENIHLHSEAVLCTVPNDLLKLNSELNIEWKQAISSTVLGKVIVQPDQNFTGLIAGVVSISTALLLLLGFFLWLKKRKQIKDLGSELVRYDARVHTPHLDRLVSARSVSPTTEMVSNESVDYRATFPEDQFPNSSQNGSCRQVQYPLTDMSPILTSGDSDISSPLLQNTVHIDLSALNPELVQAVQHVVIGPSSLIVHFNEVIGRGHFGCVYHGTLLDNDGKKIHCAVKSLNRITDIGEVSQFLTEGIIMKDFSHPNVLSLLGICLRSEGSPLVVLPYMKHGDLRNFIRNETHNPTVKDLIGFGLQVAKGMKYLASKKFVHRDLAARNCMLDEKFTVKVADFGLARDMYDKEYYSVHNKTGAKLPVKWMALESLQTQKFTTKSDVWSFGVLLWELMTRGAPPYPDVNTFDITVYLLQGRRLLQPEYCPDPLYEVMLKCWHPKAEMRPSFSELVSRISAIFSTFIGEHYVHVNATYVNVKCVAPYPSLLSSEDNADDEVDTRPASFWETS
Test [2] deals with c-Met. The note with it: background statement; cited from earlier work.
Another test relates to SNU-5 cells. The test can be described thus: CellTiter-Glo luminescent cell viability assay. Particulars: SNU-5, 72 hrs; mAb 10 μg/mL, SU11274 5 μM. The class given is cell-based, human. The procedure:
(§1) In order to determine if these antibodies have any physiological effects on tumour cells, 10 μg/mL of mAb was added to SNU-5 cells. […] This indicates SU11274 mode of mechanism is by activation of caspase which in turn result in apoptosis of SNU-5 tumour cells.
(§2) CellTiter-Glo® luminescent cell viability assay and Caspase-Glo® 3/7 Assay (Promega, U.S.A.) were used to determine cell viability and caspase activation respectively. SNU-5 cells (1×10^5 cells) were seeded in each 96-well and treated for 72 hrs before analysis. Cell viability and caspase activation were performed according to manufacturer's protocol. Luminescence was read using the EnVision plate reader (PerkinElmer, U.S.A.).
In general terms: Cellular ATP, detected with luciferase, serves as a proxy for viable cell number.

The subject of test [3] is caspase activation in SNU-5 cells. The test can be described thus: Caspase-Glo 3/7 caspase activation assay. The note with it: SNU-5, 72 hrs; mAb 10 μg/mL, SU11274 5 μM. The test is classed as cell-based, human. The procedure:
as §1, §2

A further test relates to HaCaT cells. The test can be described thus: Cell scatter assay. Particulars: 10 ng/mL HGF, controls. The test is classed as cell-based. The procedure:
Cell scattering is one of the biological hallmarks of c-Met activation. Agonist bivalent monoclonal antibodies targeting c-Met would activate c-Met and cause cells to become motile and disperse. Here, we examine the effects of purified anti-α-chain c-Met monoclonal antibodies on cell scatter. HaCaT cells were seeded at low density and allowed to grow until colonies formed. Cells were serum-starved for 24 hrs before incubating with 1 μg/mL monoclonal antibodies for 24 hrs. Cells were then fixed and stained with crystal violet. As a control, cell scatter of HaCaT cells was induced with 10 ng/mL of HGF (FIG. 5). […] Anti-HGF antibody and SU11274 were used as controls. SU11274 is a small molecule inhibitor of c-Met.
100-200 HaCaT cells were seeded in 24-well plates and allowed to grow until small colonies were formed (approximately 7 days). Cells were serum-starved for 24 hrs. Cells were incubated with purified monoclonal antibodies (1 μg/mL) for 24 hrs before rinsing twice in cold PBS and fixing in ice-cold methanol. Cells were then stained in 1% crystal-violet (Sigma-Aldrich) solution. Cell staining was observed using Zeiss Axiovert 25 inverted microscope and pictures were taken using a Canon EOS 1000 D camera.

On to “QIEEPSQCADCVVSA [P25, alanine-substituted variant of peptide O29]”, for which, in the test with mAb 2, the “mAb 2 binding to alanine-substituted peptide” value is “failed to bind” and the “Increase mAb 2 binding in ascending order” value (“Increase mAb 2 binding” for short) is 3. As to “QIEEPSQCPDCVVSA [O29, pepscan peptide of human c-Met α-chain]”, the “Increase mAb 2 binding” value in the test with mAb 2 is on record as 11. As to “QIEAPSQCPDCVVSA [P20, alanine-substituted variant of peptide O29]”, in the test with mAb 2, the “mAb 2 binding to alanine-substituted peptide” value is “failed to bind” and the “Increase mAb 2 binding” value is 9. Consider “CIFSPQIEEPSQCPA [P15, alanine-substituted variant of peptide O28]”, for which, in the test on mAb 2, the “mAb 2 binding to alanine-substituted peptide” value is given as “failed to bind” and the “Increase mAb 2 binding” value came out at 10.

Regarding “CIFSPQIEEPSQCAD [P14, alanine-substituted variant of peptide O28]”, in the test with mAb 2, the “mAb 2 binding to alanine-substituted peptide” value is recorded as “failed to bind”. In the case of `COc1cc2c(Oc3ccc(-c4cnc(Cc5ccccc5)n(C)c4=O)cc3F)ccnc2cc1OCCCN1CCOCC1` [AM7], at c-Met [1], the “inhibition of c-Met activation” value is reported as “extremely successful”.

Regarding “AIFSPQIEEPSQCPD [P1, alanine-substituted variant of peptide O28]”, in the test on mAb 2, the “mAb 2 binding to alanine-substituted peptide” value was “failed to bind”. Turning to “AIEEPSQCPDCVVSA [P17, alanine-substituted variant of peptide O29]”, in the test on mAb 2, the “mAb 2 binding to alanine-substituted peptide” value was “failed to bind” and the “Increase mAb 2 binding” value came to 5. In the case of “QIAEPSQCPDCVVSA [P19, alanine-substituted variant of peptide O29]”, in the test with mAb 2, the “mAb 2 binding to alanine-substituted peptide” value is reported as “failed to bind” and the “Increase mAb 2 binding” value came out at 6. `Cc1[nH]c(/C=C2\C(=O)Nc3ccc(S(=O)(=O)N(C)c4cccc(Cl)c4)cc32)c(C)c1C(=O)N1CCN(C)CC1` [SU11274]: the “inhibition of c-Met activation” value on c-Met [1] is reported as “extremely successful”. For the same molecule, the “activity against specific c-Met mutations” value in the test on c-Met [2] is “ineffective”. Besides, the cell viability result with SNU-5 cells is “significant reduction”. For the same molecule, the caspase activation entry in test [3] is reported as “high caspase activation”. Further, the HGF-induced cell scatter result in the test with HaCaT cells is “remained circular”. With “CIFSPQIAEPSQCPD [P8, alanine-substituted variant of peptide O28]”, the “mAb 2 binding to alanine-substituted peptide” value in the test on mAb 2 is “failed to bind”. “CIFSPQIEAPSQCPD [P9, alanine-substituted variant of peptide O28]”: in the test on mAb 2, the “mAb 2 binding to alanine-substituted peptide” value is given as “failed to bind” and the “Increase mAb 2 binding” value came out at 4. Taken in the same sequence, the figures for “CIFSPQIEEASQCPD [P10, alanine-substituted variant of peptide O28]” were “failed to bind” and 7. Turning to “CIFSPQIEEPSQCPD [O28, pepscan peptide of human c-Met α-chain]”, the “Increase mAb 2 binding” value with mAb 2 is recorded as 11. As for “CIFSPQAEEPSQCPD [P7, alanine-substituted variant of peptide O28]”, in the test with mAb 2, the “mAb 2 binding to alanine-substituted peptide” value is “failed to bind” and the “Increase mAb 2 binding” value is 8. As for `Cc1[nH]c(/C=C2\C(=O)Nc3ccc(S(=O)(=O)Cc4c(Cl)cccc4Cl)cc32)c(C)c1C(=O)N1CCC[C@@H]1CN1CCCC1` [PHA-665752], the “inhibition of c-Met activation” value on c-Met [1] is reported as “extremely successful”.

B1: MetMab: monovalent chimeric antibody targeted against c-Met (antibody, chains of the INN, looked up, V domains shown)
VH: EVQLVESGGGLVQPGGSLRLSCAASGYTFTSYWLHWVRQAPGKGLEWVGMIDPSNSDTRFNPNFKDRFTISADTSKNTAYLQMNSLRAEDTAVYYCATYRSYVTPLDYWGQGTLVTVSS
VL: DIQMTQSPSSLSASVGDRVTITCKSSQSLLYTSSQKNYLAWYQQKPGKAPKLLIYWASTRESGVPSRFSGSGSGTDFTLTISSLQPEDFATYYCQQYYAYPWTFGQGTKVEIK
modifications: one-armed monovalent
notes: monovalent chimeric antibody targeted against c-Met
Consider B1, for which the “agonist/antagonist activity towards c-Met” value in the test with c-Met [1] is given as “antagonist”.
